Measured values as given in patent US20120276012A1, “Method of Treatment and Screening Method” (ISIS INNOVATION LIMITED, priority 2009, published 2012).
Where a chain is given by its changes, count along the chain named.

Columns and labels:
[1] = molecular target: T1, creatine transporter (CrT) (Mus musculus, UniProt Q8VBW1); assay: 14C-labelled creatine uptake in HL-1 cells expressing endogenous CrT; assay type: cell-based; conditions: HL1 cells incubated with 250 μM creatine; increasing extracellular β-GPA concentration; FIG. 5B
T1 construct: these cells express endogenous CrT; endogenous in cells; host or cells: HL-1 cells (mouse atrial cardiomyocyte-like)
T1 sequence (Q8VBW1 1-635): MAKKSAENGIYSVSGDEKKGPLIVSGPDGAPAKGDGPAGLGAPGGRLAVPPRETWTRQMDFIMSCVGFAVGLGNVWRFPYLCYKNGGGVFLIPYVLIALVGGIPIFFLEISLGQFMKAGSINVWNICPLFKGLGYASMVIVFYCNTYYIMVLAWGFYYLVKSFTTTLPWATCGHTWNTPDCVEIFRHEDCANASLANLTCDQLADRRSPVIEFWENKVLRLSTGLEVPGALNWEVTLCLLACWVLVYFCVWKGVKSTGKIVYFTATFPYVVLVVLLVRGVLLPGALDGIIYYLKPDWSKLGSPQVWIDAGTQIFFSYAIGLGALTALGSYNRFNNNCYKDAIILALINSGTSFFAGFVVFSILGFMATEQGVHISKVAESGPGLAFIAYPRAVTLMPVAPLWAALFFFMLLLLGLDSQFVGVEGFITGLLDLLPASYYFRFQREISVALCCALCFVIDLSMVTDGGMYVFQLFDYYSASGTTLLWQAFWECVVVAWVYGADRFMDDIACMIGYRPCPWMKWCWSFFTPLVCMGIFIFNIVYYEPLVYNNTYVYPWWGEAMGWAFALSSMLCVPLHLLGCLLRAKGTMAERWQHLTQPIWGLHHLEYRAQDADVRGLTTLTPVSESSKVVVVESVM
Description: Cells (1×10^5 cells) were plated into 24-well-plates, and incubated for 18 hours to form monolayers. Each well was spiked with 10 μl (37 kBq) ^14C-creatine, 500 μM of non-radiolabelled Cr, and 30 μM of test compound (β-guanidinopropionic acid) (performed in triplicate). After incubation at 37° C. for 60 min (95% air, 5% CO2), media was aspirated, cells solubilised and lysed using PBS/TritonX-100. A scintillation counter measures signal attributed to intracellular radiolabel, with Cr uptake estimated against known standards. Control wells contain no test compound to measure normal background uptake, and control wells containing only cells are used for protein quantification. […] HL-1 cells that are derived from mouse atrial tumour cells and have a beating cardiomyocyte-like phenotype. […] Changes in creatine uptake were measured using the ^14C screen described above.

[2] = molecular target: T2, creatine transporter (CrT) (Homo sapiens, UniProt P48029); assay: 14C-labelled creatine uptake in fibroblast 3T3 cells that stably express the CrT; assay type: cell-based; conditions: 3T3 cells stably expressing CrT; increasing extracellular β-GPA concentration; 14C-creatine, 37° C. for 60 min; FIG. 5B
T2 construct: expressed in transfected cells
T2 sequence (P48029 1-635): T1 sequence (Q8VBW1 1-635) with V24A, S25P, A38V, A42T, T223G, T368A, I539V
Description: We have developed a sensitive and specific assay for measuring ^14C-labelled Cr uptake in cell culture using fibroblast 3T3 cells that stably express the CrT. Cells (1×10^5 cells) were plated into 24-well-plates, and incubated for 18 hours to form monolayers. […] After incubation at 37° C. for 60 min (95% air, 5% CO2), media was aspirated, cells solubilised and lysed using PBS/TritonX-100. A scintillation counter measures signal attributed to intracellular radiolabel, with Cr uptake estimated against known standards. Control wells contain no test compound to measure normal background uptake, and control wells containing only cells are used for protein quantification.

Structure (SMILES): N=C(N)NCCC(=O)O [β-GPA, β-guanidinopropionic acid]
- creatine uptake [1]: dose-dependent inhibition of creatine uptake
- creatine uptake [2]: dose-dependent inhibition of creatine uptake
